Values after ≈ are worked out from the molar mass of the structure shown.

The subject of experiment [1] is A549. Kind of experiment: Growth inhibitory effect of compound was measured on A-549 human lung adenocarcinoma cancer cell line. Type of experiment: functional, cell-based.
In experiment [2] the test system is HCT-15. In words: Growth inhibitory effect of compound was measured on HCT-15 human colon adenocarcinoma cancer cell line. Type of experiment: functional, cell-based.
The test system of experiment [3] is HT1197. Kind of experiment: Growth inhibitory effect of compound was measured on HT1197 human bladder adenocarcinoma cancer cell line. Type of experiment: functional, cell-based.
Experiment [4] concerns the target T1, 1-phosphatidylinositol 4,5-bisphosphate phosphodiesterase gamma-1 (Homo sapiens, UniProt P19174).
T1 sequence (P19174 whole entry): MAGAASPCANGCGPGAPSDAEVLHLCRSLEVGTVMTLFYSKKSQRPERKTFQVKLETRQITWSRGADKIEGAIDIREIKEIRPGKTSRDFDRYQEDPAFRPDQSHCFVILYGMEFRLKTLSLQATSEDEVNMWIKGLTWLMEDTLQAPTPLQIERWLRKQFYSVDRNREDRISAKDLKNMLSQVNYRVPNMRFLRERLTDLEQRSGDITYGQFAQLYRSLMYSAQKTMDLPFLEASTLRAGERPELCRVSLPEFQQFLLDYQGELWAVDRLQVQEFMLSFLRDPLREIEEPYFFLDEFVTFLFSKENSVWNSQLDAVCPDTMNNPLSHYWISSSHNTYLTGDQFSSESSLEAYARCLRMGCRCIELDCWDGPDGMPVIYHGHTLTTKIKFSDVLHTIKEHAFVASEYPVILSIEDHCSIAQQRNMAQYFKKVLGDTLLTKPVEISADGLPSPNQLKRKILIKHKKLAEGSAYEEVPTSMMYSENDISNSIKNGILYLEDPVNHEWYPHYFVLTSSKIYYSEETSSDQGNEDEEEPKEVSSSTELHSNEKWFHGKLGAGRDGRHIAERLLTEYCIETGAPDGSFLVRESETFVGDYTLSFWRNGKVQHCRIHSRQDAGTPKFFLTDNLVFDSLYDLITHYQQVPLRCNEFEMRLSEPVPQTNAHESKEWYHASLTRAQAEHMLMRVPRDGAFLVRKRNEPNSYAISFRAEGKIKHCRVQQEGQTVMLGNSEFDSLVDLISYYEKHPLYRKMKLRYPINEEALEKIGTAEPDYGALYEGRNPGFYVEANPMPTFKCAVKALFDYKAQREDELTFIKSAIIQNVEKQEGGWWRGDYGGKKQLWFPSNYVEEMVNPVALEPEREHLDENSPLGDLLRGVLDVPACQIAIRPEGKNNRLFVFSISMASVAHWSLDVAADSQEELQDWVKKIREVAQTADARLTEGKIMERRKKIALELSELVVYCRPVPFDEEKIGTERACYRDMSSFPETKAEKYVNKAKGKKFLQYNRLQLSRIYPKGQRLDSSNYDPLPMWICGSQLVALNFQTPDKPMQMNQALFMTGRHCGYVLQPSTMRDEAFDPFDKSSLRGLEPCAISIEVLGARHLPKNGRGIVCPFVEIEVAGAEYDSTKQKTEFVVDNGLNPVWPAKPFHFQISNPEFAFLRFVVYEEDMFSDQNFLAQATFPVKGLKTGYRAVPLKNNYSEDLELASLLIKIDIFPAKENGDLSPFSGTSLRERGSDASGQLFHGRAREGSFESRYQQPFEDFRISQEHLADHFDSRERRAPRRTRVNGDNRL
In words: Inhibitory concentration was evaluated against phospholipase C-gamma1.

The subject of experiment [5] is MCF7. Kind of experiment: Growth inhibitory effect of compound was measured on MCF-7 human breast adenocarcinoma cancer cell line. The class given is functional, cell-based.

With `COc1cc(/C=C/C(=O)OC[C@@]23CC[C@@]4(C(=O)O)CCC(C)(C)C[C@H]4C2=CCC2[C@@]4(C)CC[C@H](O)C(C)(C)C4CC[C@]23C)ccc1O` (stereo not given in full), the half-maximal inhibitory concentration (IC50) (commonly the concentration at which inhibition is half-maximal) in experiment [1] turned out to be 0.73 µg/mL (≈ 1.13 µM); in experiment [2], 1.41 µg/mL (≈ 2.17 µM); in experiment [3] it was 3.53 µg/mL (≈ 5.44 µM); in experiment [4], 35.7 µM; in experiment [5] it was 2.03 µg/mL (≈ 3.13 µM).

Consider `COc1cc(/C=C\C(=O)OC[C@@]23CC[C@@]4(C(=O)O)CCC(C)(C)C[C@H]4C2=CCC2[C@@]4(C)CC[C@H](O)C(C)(C)C4CC[C@]23C)ccc1O` (stereo not given in full), for which the IC50 in experiment [1] came to 1.79 µg/mL (≈ 2.76 µM); in experiment [2], 1.44 µg/mL (≈ 2.22 µM); in experiment [3] it was 2.34 µg/mL (≈ 3.61 µM); in experiment [4], 44.6 µM; in experiment [5], 2.59 µg/mL (≈ 3.99 µM).

For the origin of these results see ChEMBL document CHEMBL1131717, “Uncarinic acids: phospholipase Cgamma1 inhibitors from hooks of Uncaria rhynchophylla” (Bioorg Med Chem Lett, 1999).
